Data from US11945862B2, “Compositions and methods for antibody production” (ImmunoGen, Inc., priority 2017, dated 2024).
Where a name gives a salt, the structure may show the parent alone. Read-outs that look alike come from different tables or passages of the source.

Key:
[1] = test system: Calu3 human lung cancer cells; assay: Cell viability, microscopic observation and Cell Titer Glo ATP assay; assay type: cell-based; conditions: 1 day
Experimental: The effect of incubating cells with anthraquinone-2-sulfonic acid (AQS) was tested using Calu3 human lung cancer cells. Effects on cell viability were assayed by microscopic observation of cells and by ATP-based viability assay using Cell Titer Glo reagent (Promega).

CHO cells = assay: Viability of CHO cells after 1 day treatment; conditions: antibody-producing CHO cells, about two weeks continuous culture, control 63.8%
humanized N901 antibody = assay: Antibody disulfide reduction by CHO cell lysate (RIPA buffer), thiol/antibody by Ellman's assay; assay type: biochemical; conditions: for decrease in antibody-disulfide reduction: versus control without agent
Experimental: For all of the examples described below, cell damage was simulated by multiple freeze-thaw cycles of cells, by addition of RIPA buffer (50 mM Tris-HCl, pH 7.4, 1% NP-40, 0.5% sodium deoxycholate, 0.1% sodium dodecylsulfate), or by using microfluidizer. This damaged cell supernatant or lysate was then incubated with a buffered solution containing antibody with or without the anti-reduction agent being tested, following which the extent of the antibody-disulfide reduction was measured using Ellman's assay for thiol (P. W. Riddles, R. L. Blakeley, and B. Zerner, Methods Enzymol., 91, 49-60, 1983) or by non-reducing SDS protein LabChip analysis. The total thiol level present in the mixture of damaged cell supernatant/lysate was measured initially.
The effect of 1,2-naphthoquinone-4-sulfonic acid (NQS) on antibody-disulfide reduction was studied by incubating 1,2-naphthoquinone-4-sulfonic acid at several concentrations with antibody and damaged CHO lysate. The damaged CHO cell lysate was generated by the addition of 0.5 ml RIPA buffer (50 mM Tris-HCl, pH 7.4, 1% NP-40, 0.5% sodium deoxycholate, 0.1% sodium dodecylsulfate) to 100 million CHO cells. The thiol concentration in CHO cell lysate was measured by Ellman's assay as 2.1 mM.
Each sample contained pre-mixed 0.5 ml RIPA buffer (50 mM Tris-HCl, pH 7.4, 1% NP-40, 0.5% sodium deoxycholate, 0.1% sodium dodecylsulfate) with 1 mg humanized N901 antibody, with or without 1,2-naphthoquinone-4-sulfonic acid (25 micromolar, or 50 micromolar, or 100 micromolar), which was added to a cell pellet of 100 million CHO cells, and the resuspended cells were incubated at ambient temperature for 30 minutes, following which the cell debris were pelleted by centrifugation (16,000 g, 5 min). The supernatant from each sample was added to 50 microliter immobilized-Protein A beads (RepliGen) and rotated at ambient temperature for 3 hours, after which the supernatant was removed and the beads washed with PBS.
(§1) The thiol content of the immobilized antibody was determined by the addition of 0.6 ml of PBS containing 0.5 mM DTNB (Ellman's reagent) to the beads, rotation for about 10 minutes, centrifugation, and absorbance measurement of supernatant at 412 nm.
The effect of anthraquinone-2-sulfonic acid (AQS) on antibody-disulfide reduction was studied during co-incubation of anthraquinone-2-sulfonic acid with antibody and damaged CHO lysate. Each sample contained pre-mixed 1 ml RIPA buffer (50 mM Tris-HCl, pH 7.4, 1% NP-40, 0.5% sodium deoxycholate, 0.1% sodium dodecylsulfate) with 1 mg humanized N901 antibody, with or without 0.2 mM anthraquinone-2-sulfonic acid (AQS), which was added to a cell pellet of 100 million CHO cells, and the resuspended cells were incubated at ambient temperature for 30 minutes, following which the cell debris were pelleted by centrifugation (16,000 g, 5 min). The thiol concentration in CHO cell lysate was 1 mM (Ellman's assay).
as §1, with “The supernatant from each sample was added to 50 microliter immobilized-Protein A beads (RepliGen) and rotated at ambient temperature for 3 hours, after which the supernatant was removed and the beads washed with PBS. The” for “The”
In another experiment, 1 mg huN901 antibody was incubated with CHO lysate, with or without 0.4 mM anthraquinone-2-sulfonic acid for 4 hours. The mixture was then analyzed for thiol/antibody as above.
The thiol concentration in CHO cell lysate was 1 mM (Ellman's assay).
The supernatant from each sample was added to 50 microliter immobilized-Protein A beads (RepliGen) and rotated at ambient temperature for 3 hours, after which the supernatant was removed and the beads washed with PBS. […]

[2] = test system: Humanized FOLR1 IgG1 antibody; assay: Antibody disulfide reduction by CHO cell lysate (RIPA buffer), thiol per antibody by Ellman's assay; assay type: biochemical
Experimental: Lysates of CHO cells (˜60 million cells lysed in 0.6 ml RIPA buffer and clarified by centrifugation) were added to each of these mixtures. The pH values of all samples were adjusted to 7. […] The samples were incubated with 200 microliter immobilized-Protein A beads (RepliGen) and rotated at ambient temperature for 3 hours, after which the supernatant was removed and the beads washed with PBS. The thiol content of the immobilized antibody was determined by the addition of 0.2 ml of PBS containing 0.5 mM DTNB (Ellman's reagent) to the beads, rotation for about 10 minutes, centrifugation, and absorbance measurement of the supernatant at 412 nm.
The pH values of all samples were adjusted to 7. The samples were incubated with 200 microliter immobilized-Protein A beads (RepliGen) and rotated at ambient temperature for 3 hours, after which the supernatant was removed and the beads washed with PBS. The thiol content of the immobilized antibody was determined by the addition of 0.2 ml of PBS containing 0.5 mM DTNB (Ellman's reagent) to the beads, rotation for about 10 minutes, centrifugation, and absorbance measurement of the supernatant at 412 nm.
To test the effect of L-cystine bis(t-butyl ester) (CDBE) on protecting antibody disulfide bonds from reduction by CHO lysate, humanized FOLR1 IgG1 antibody (2 mg) was incubated with CHO lysate in RIPA buffer (0.6 ml lysate of 60 million CHO cells in 0.6 ml RIPA buffer, clarified by centrifugation) without or with 0.5 or 1 mM CDBE. The samples were rotated at ambient temperature with 200 microliter immobilized-Protein A beads (RepliGen) for 2 hours, after which the supernatant was removed and the beads washed with PBS. The thiol content of the immobilized antibody was determined by the addition of 0.2 ml of PBS containing 0.5 mM DTNB (Ellman's reagent) to the beads, centrifugation, and absorbance measurement of the supernatant at 412 nm.
The samples were rotated at ambient temperature with 200 microliter immobilized-Protein A beads (RepliGen) for 2 hours, after which the supernatant was removed and the beads washed with PBS. The thiol content of the immobilized antibody was determined by the addition of 0.2 ml of PBS containing 0.5 mM DTNB (Ellman's reagent) to the beads, centrifugation, and absorbance measurement of the supernatant at 412 nm.

humanized FOLR1 IgG1 = assay: Antibody fragmentation in HCCF treated with 20% (v/v) microfluidized CHO cells, non-reducing SDS-Protein Lab Chip; assay type: biochemical; conditions: 1 mM of each additive, 6 h; control 78% fragmentation
Experimental: The samples were quenched with 5 mM N-ethylmaleimide (NEM), purified using immobilized Protein A, and subjected to non-reducing SDS-Protein Lab Chip electrophoretic analysis.

[3] = Reactivity of AQS with a model thiol, Ellman's assay of thiol groups; conditions: 1 mM AQS with 1 mM cysteine ethyl ester, PBS, ambient temperature
Experimental: In a separate experiment, the reactivity of anthraquinone-2-sulfonic acid (AQS) with a model thiol (L-cysteine ethyl ester) at ambient temperature was investigated by incubating 1 mM AQS with 1 mM cysteine ethyl ester at ambient temperature in PBS, using Ellman's assay of thiol groups to measure the extent of reaction. At time points of 1 hour, 2 hours, 3 hours, and 4 hours, the percent decrease in thiol values for the 1 mM AQS with 1 mM cysteine ethyl ester mixture versus thiol in a 1 mM cysteine ethyl ester (No AQS) control were 2%, 8%, 12%, and 20%, respectively.

humanized IgG4 = assay: IgG4 disulfide reduction by CHO cell lysate, DTNB thiol assay; assay type: biochemical; conditions: 1 mM agent, 30% v/v CHO cell lysate, 4 hours, pH 7; control 7.7
Experimental: All samples were adjusted to pH 7 and incubated with 200 μl protein A beads for 4 hours while rotating at room temperature. After the incubation the supernatant was removed and beads washed three times with 10 ml PBS. To analyze the thiol content of the protein A-bound IgG4 antibody, the beads were incubated with a 0.5 mM DTNB solution for 5 min and the absorbance of the supernatant measured at 412 nm.

Humanized IgG2 antibody = assay: IgG2 disulfide reduction by CHO cell lysate, DTNB thiol assay; assay type: biochemical; conditions: 1 mM agent, 40% v/v CHO cell lysate, 5 hours, pH 7; control 0.84
Experimental: Humanized IgG2 antibody (1 mg/ml; final concentration) was incubated with 40% v/v CHO cell lysate (˜40 million cells lysed with 0.4 ml RIPA buffer and debris removed by centrifugation) in a total volume of 1 ml. The control sample was adjusted to pH 7 and rotated at RT for 5 hours with 100 μl protein A beads. […] After the incubation time of 5 hours, the supernatant was removed and the beads were washed three times with 10 ml PBS before the thiol amount of the immobilized antibody was analyzed by adding 0.5 mM DTNB and measuring the absorbance at 412 nm.

physchem = conditions: thermodynamic from solid
Text: The pH was adjusted to pH 7.1 and the sample was rotated overnight at ambient temperature followed by centrifugation to remove undissolved L-cystine dihydrochloride.

[4] = Redox potential of antibody solution with media additive over a range of DTT concentrations; assay type: physicochemical; conditions: 1 mM additive, DTT 0.34 μM to 170 μM, 37° C., 1 h
M9346A antibody [5] = assay type: biochemical
M9346A antibody [6] = assay type: biochemical; conditions: 1 mM additive, conditions where control without additive was 100% fragmented
Experimental: Antibody reduction was induced in a biological assay by adding cell lysate to purified monoclonal antibody. […]. Increasing amounts of CHO cell lysate were added to mimic different percentages of cell lysis, ranging from […]. Fresh NADPH was added to a concentration of 400 μM. The mixtures were incubated in a water bath at 37° C. for 1 h. Free thiols were alkylated by addition of 10% (v/v) of 50 mM N-ethyl-maleimide (NEM) solution. Samples were analyzed by non-reduced sodium dodecyl sulfate denaturing capillary electrophoresis (NR-CE-SDS).
To test the capacity for protection further, the stringency of the assay was increased. […].

Structure (SMILES): O=C1c2ccccc2C(=O)c2cc(S(=O)(=O)O)ccc21 [AQS, anthraquinone-2-sulfonic acid]
- Cell Titer Glo luminescence relative to control cells ([1]; 0.25 mM): 100%
- Cell Titer Glo luminescence relative to control cells ([1]; 0.5 mM): 85%
- cytotoxic effects by microscopic observation ([1]; 0.25 and 0.5 mM): no visible cytotoxic effects
- viability count using trypan blue (CHO cells; 0.25 mM): 66.2%
- viability count using trypan blue (CHO cells; 0.5 mM): 64.8%
- viability count using trypan blue (CHO cells; 0.75 mM): 61.7%
- thiol/antibody (humanized N901 antibody; 0.2 mM agent, 3 hours, lysate thiol 1 mM, control 4.86): 2.46 thiol/antibody
- decrease in antibody-disulfide reduction (humanized N901 antibody; 0.2 mM agent, 3 hours): 49%
- thiol/antibody (humanized N901 antibody; 0.4 mM agent alone, 4 hours, control 4.34): 1.65 thiol/antibody
- decrease in antibody-disulfide reduction (humanized N901 antibody; 0.4 mM agent, 4 hours): 62%
- thiol per antibody ([2]; 2 mM agent, 3 hours, pH 7, lysate of ~40 million cells, control 0.95): about 0.18 thiol per antibody
- fragmentation compared with no additive control (humanized FOLR1 IgG1): much lower fragmentations
- percent decrease in thiol versus No AQS control ([3]; 1 hour): 2%
- percent decrease in thiol versus No AQS control ([3]; 2 hours): 8%
- percent decrease in thiol versus No AQS control ([3]; 3 hours): 12%
- percent decrease in thiol versus No AQS control ([3]; 4 hours): 20%

Structure (SMILES): CC(C)(C)OC(=O)[C@@H](N)CSSC[C@H](N)C(=O)OC(C)(C)C [CDBE, L-cystine bis(t-butyl ester)]
- thiol groups per antibody (humanized IgG4): no reduced disulfides were detected
- reduced thiols per antibody (Humanized IgG2 antibody): near-zero reduction
- decrease in disulfide reduction compared to the control ([2]; 0.25 mM agent, another experiment): about 78%
- decrease in disulfide reduction compared to the control ([2]; 0.5 mM agent, 2 hours): about 93%
- thiol per antibody ([2]; 0.5 mM agent, 2 hours, control 2.26): about 0.16 thiol per antibody
- decrease in disulfide reduction compared to the control ([2]; 1 mM agent, 2 hours): ~96%
- thiol per antibody ([2]; 1 mM agent, 2 hours, control 2.26): ~0.10 thiol per antibody
- decrease in disulfide reduction compared to the control ([2]; 2 mM agent, another experiment): ~98%

Structure (SMILES): CC(C)(C)OC(=O)[C@@H](N)CSSC[C@H](N)C(=O)OC(C)(C)C [L-cystine bis(t-butyl ester) dihydrochloride]
- solubility (physchem; water): ≥ 500 mM

Structure (SMILES): Cl.Cl.N[C@@H](CSSC[C@H](N)C(=O)O)C(=O)O [L-cystine dihydrochloride, reference compound]
- thiol per antibody ([2]; L-cystine derived from saturated L-cystine solution, 3 hours, pH 7, control 1.96): about 0.74 thiol per antibody
- solubility (physchem; pH 7.1, aqueous buffer): < 5 mM

Structure (SMILES): O=S(=O)([O-])[O-].[Cu+2] [copper sulfate]
- modulation of redox potential [4]: constant redox potential across all DTT concentrations
- intact antibody (M9346A antibody [5]): 100%
- protection at increased assay stringency (M9346A antibody [6]): protective of disulfide reduction

Structure (SMILES): [O]=[Cr](=[O])([O-])[O][Cr](=[O])(=[O])[O-] [dichromate, reference compound]
- modulation of redox potential [4]: constant redox potential across all DTT concentrations
- intact antibody (M9346A antibody [5]; 1 mM additive, 100 μM DTT, 37° C., 1 h, control 80%): 100%
